This passage reports IC50 results from patent US8802720B2, “Acylamino-substituted fused cyclopentanecarboxylic acid derivatives and their use as pharmaceuticals” (SANOFI, priority 2008, dated 2014).

human Edg-2 receptor (LPA1 receptor), sequence (Q92633 whole entry): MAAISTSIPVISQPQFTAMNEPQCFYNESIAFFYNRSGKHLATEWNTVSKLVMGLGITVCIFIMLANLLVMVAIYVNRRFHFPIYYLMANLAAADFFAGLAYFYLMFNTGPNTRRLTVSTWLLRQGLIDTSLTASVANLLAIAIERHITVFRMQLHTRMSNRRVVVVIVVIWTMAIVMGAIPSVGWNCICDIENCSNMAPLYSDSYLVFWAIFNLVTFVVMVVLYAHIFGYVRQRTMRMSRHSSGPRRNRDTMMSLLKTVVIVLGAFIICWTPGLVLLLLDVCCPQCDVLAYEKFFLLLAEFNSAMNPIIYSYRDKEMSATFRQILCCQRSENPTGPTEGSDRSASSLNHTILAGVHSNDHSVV

In this experiment the target is human Edg-2 receptor (LPA1 receptor) (Homo sapiens, UniProt Q92633). As to the kind of experiment: Edg-2 receptor inhibition by FLIPR calcium fluorescence measurement (LPA-mediated calcium liberation). It is filed as cell-based. As to conditions: CHO cells stably overexpressing human Edg-2 receptor; LPA 18:1 100 nM; fluo-4 fluorescence; triplicate; read-out: Inhibitory concentrations IC50 for inhibition of the Edg-2 receptor. Summed up:
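CHO cells stably overexpressing human Edg-2 were fluo-4 loaded and pre-incubated ~5 min with compound (≤0.3% DMSO) in HBSS/HEPES/probenecid, pH 7.5. Then LPA 18:1 at 100 nM final was added. Peak calcium fluorescence over ~3 min, baseline-corrected versus DMSO, gave % inhibition in triplicate and IC50.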
Consider `CCOc1cccc(-c2cc(C(=O)NC3(C(=O)O)Cc4ccccc4C3)ccc2OC)c1` [Example 288], for which the IC50 lay within 100 to 1000 nM.

As to `COc1ccc(C(=O)NC2(C(=O)O)Cc3ccccc3C2)cc1-c1cc(Cl)ccc1Cl` [Example 303], the IC50 was less than 100 nM.

With `COc1ccc(C(=O)NC2(C(=O)O)Cc3ccccc3C2)cc1OCC1CCCN(C)C1` (stereo not drawn) [Example 48], the IC50 lay within 1000 to 30000 nM.

`COc1ccc(C(=O)NC2(C(=O)O)Cc3ccccc3C2)cc1Oc1ccccc1C` [Example 238, 2-(4-Methoxy-3-o-tolyloxy-benzoylamino)-indane-2-carboxylic acid]: the IC50 is 100 to 1000 nM.

As to `O=C(NC1(C(=O)O)Cc2ccccc2C1)c1ccc(C(F)(F)F)c(OCCc2cc(C(F)(F)F)ccc2F)c1` [Example 191], the IC50 is less than 100 nM.

Consider `COc1ccc(C(=O)NC2(C(=O)O)Cc3ccccc3C2)cc1OCCc1scnc1C` [Example 206, 2-{4-Methoxy-3-[2-(4-methyl-thiazol-5-yl)-ethoxy]-benzoylamino}-indane-2-carboxylic acid], for which the IC50 is 1000 to 30000 nM.

For `COc1ccc(C(=O)NC2(C(=O)O)Cc3ccccc3C2)cc1OCC(F)(F)c1ccccc1` [Example 213, 2-[3-(2,2-Difluoro-2-phenyl-ethoxy)-4-methoxy-benzoylamino]-indane-2-carboxylic acid], the IC50 was less than 100 nM.

`COc1ccc(C(=O)NC2(C(=O)O)Cc3ccccc3C2)cc1OCCc1cccc(CC(C)(C)O)c1` [Example 249, 2-(3-{2-[3-(2-Hydroxy-2-methyl-propyl)-phenyl]-ethoxy}-4-methoxy-benzoylamino)-indane-2-carboxylic acid]: the IC50 was less than 100 nM.

As for `COc1ccc(C(=O)NC2(C(=O)O)Cc3ccccc3C2)cc1OCC1CCCC1` [Example 42], the IC50 lay within 1000 to 30000 nM.

Turning to `C=CCOc1ccc(C(=O)NC2(C(=O)O)Cc3ccccc3C2)cc1OCCc1cccc(C)c1` [Example 269], the IC50 is less than 100 nM.

For the compound `CCCOc1cccc(-c2cc(C(=O)NC3(C(=O)O)Cc4ccccc4C3)ccc2OC)c1` [Example 318], the IC50 was less than 100 nM.

In the case of `COc1ccc(C(=O)NC2(C(=O)O)Cc3ccccc3C2)cc1-c1cc(C)cc(C(C)(C)C)c1` [Example 313], the IC50 is less than 100 nM.

Take `COc1ccc(C(=O)NC2(C(=O)O)Cc3ccccc3C2)cc1-c1cccc(CCC(=O)O)c1` [Example 328]: the IC50 lay in the range of 100 to 1000 nM.

`COc1ccc(C(=O)NC2(C(=O)O)Cc3ccccc3C2)cc1SCc1ccccc1` [Example 182, 2-(3-Benzylsulfanyl-4-methoxy-benzoylamino)-indane-2-carboxylic acid]: the IC50 lay in the range of 1000 to 30000 nM.

As to `COc1ccc(C(=O)NC2(C(=O)O)Cc3ccccc3C2C)cc1OCCc1cccc(C)c1` (stereo not drawn) [Example 209, 2-[4-Methoxy-3-(2-m-tolyl-ethoxy)-benzoylamino]-1-methyl-indane-2-carboxylic acid], the IC50 was less than 100 nM.

Consider `COc1ccc(C(=O)NC2(C(=O)O)Cc3ccccc3C2)cc1-c1cccc(OCC2CC2)c1` [Example 324], for which the IC50 lay within 1000 to 30000 nM.

On to `COc1cc(Cl)c(C(=O)NC2(C(=O)O)Cc3ccccc3C2)cc1OCCc1cccc(Cl)c1` [Example 105, 2-{2-Chloro-5-[2-(3-chloro-phenyl)-ethoxy]-4-methoxy-benzoylamino}-indane-2-carboxylic acid], for which the IC50 is 100 to 1000 nM.

On to `COc1ncc(C(=O)NC2(C(=O)O)Cc3ccccc3C2)cc1OCCc1cccc(CCO)c1` [Example 275, 2-[(5-{2-[3-(2-Hydroxy-ethyl)-phenyl]-ethoxy}-6-methoxy-pyridine-3-carbonyl)-amino]-indane-2-carboxylic acid], for which the IC50 is less than 100 nM.

Consider `CCC1(COc2cc(C(=O)NC3(C(=O)O)Cc4ccccc4C3)ccc2OC)COCOC1` [Example 56], for which the IC50 lay within 1000 to 30000 nM.

Regarding `COc1ccc(C(=O)NC2(C(=O)O)Cc3ccccc3C2)cc1OCCc1c[nH]c2ccccc12` [Example 32], the IC50 was in the range of 1000 to 30000 nM.

With `CCS(=O)(=O)c1cccc(-c2cc(C(=O)NC3(C(=O)O)Cc4ccccc4C3)cnc2OC)c1` [Example 237, 2-{[5-(3-Ethanesulfonyl-phenyl)-6-methoxy-pyridine-3-carbonyl]-amino}-indane-2-carboxylic acid], the IC50 fell in the range of 100 to 1000 nM.

Take `CCOc1ccc(C(=O)NC2(C(=O)O)Cc3ccccc3C2)cc1OCCc1cccc(C)c1` [Example 12, 2-[4-Ethoxy-3-(2-m-tolyl-ethoxy)-benzoylamino]-indane-2-carboxylic acid]: the IC50 is less than 100 nM.

Consider `COc1ccc(C(=O)NC2(C(=O)O)Cc3ccccc3C2)cc1OCC1C[C@H]2C=C[C@@H]1C2` (stereo partly drawn) [Example 87], for which the IC50 fell in the range of 1000 to 30000 nM.

Regarding `COc1ccc(C(=O)NC2(C(=O)O)Cc3ccccc3C2)cc1-c1cc(C(F)(F)F)ccc1Cl` [Example 289], the IC50 lay in the range of 100 to 1000 nM.

For the compound `COc1ncc(C(=O)NC2(C(=O)O)Cc3ccccc3C2)cc1-c1cccc(C#N)c1` [Example 236], the IC50 was less than 100 nM.

For the compound `COc1ccnc(COc2cc(C(=O)NC3(C(=O)O)Cc4ccccc4C3)ccc2OC)c1` [Example 55], the IC50 is 1000 to 30000 nM.

On to `COc1ccc(C(=O)NC2(C(=O)O)Cc3ccccc3C2)cc1-c1cc(C)c(C)cc1C` [Example 317], for which the IC50 lay in the range of 100 to 1000 nM.

`CSc1ccc(C(=O)NC2(C(=O)O)Cc3ccccc3C2)cc1OCCc1cccc(C)c1` [Example 4, 2-[4-Methylsulfanyl-3-(2-m-tolyl-ethoxy)-benzoylamino]-indane-2-carboxylic acid]: the IC50 was less than 100 nM.

With `Cc1cccc(CCOc2cc(C(=O)NC3(C(=O)O)Cc4ccccc4C3)ccc2OCC(=O)O)c1` [Example 271, 2-[4-Carboxymethoxy-3-(2-m-tolyl-ethoxy)-benzoylamino]-indane-2-carboxylic acid], the IC50 lay in the range of 100 to 1000 nM.

Take `COc1ccc(C(=O)NC2(C(=O)O)Cc3ccccc3C2)cc1OCC(C)c1ccccc1` (stereo not drawn) [Example 144]: the IC50 is less than 100 nM.

Consider `COc1ccc(C(=O)NC2(C(=O)O)Cc3ccccc3C2)cc1-c1ccc(Cl)cc1` [Example 280], for which the IC50 was in the range of 100 to 1000 nM.

In the case of `COc1ccccc1CCOc1cc(C(=O)NC2(C(=O)O)Cc3ccccc3C2)ccc1OC` [Example 138], the IC50 is 1000 to 30000 nM.

Regarding `COc1ccc(C(=O)NC2(C(=O)O)Cc3ccccc3C2)cc1-c1cccc(OCc2ccccc2)c1` [Example 305], the IC50 lay within 100 to 1000 nM.

As for `COc1ccc(C(=O)NC2(C(=O)O)Cc3ccccc3C2)cc1OCCC1CC1` [Example 86], the IC50 lay in the range of 1000 to 30000 nM.

Turning to `Cc1cccc(CCNc2cc(C(=O)NC3(C(=O)O)Cc4ccccc4C3)ccc2O)c1` [Example 179, 2-[4-Hydroxy-3-(2-m-tolyl-ethylamino)-benzoylamino]-indane-2-carboxylic acid], the IC50 was in the range of 100 to 1000 nM.

For the compound `Cc1cccc(CCOc2cc(C(=O)NC3(C(=O)O)Cc4ccccc4C3)ccc2OCCC(F)(F)F)c1` [Example 260], the IC50 was in the range of 100 to 1000 nM.

Take `COc1ccc(C(=O)NC2(C(=O)O)Cc3ccccc3C2)cc1OCc1ccc(N2CCCC2)nc1` [Example 76]: the IC50 lay in the range of 1000 to 30000 nM.

Turning to `COc1ncc(C(=O)NC2(C(=O)O)Cc3ccccc3C2)cc1OCCc1cccc(C)c1` [Example 208, 2-{[6-Methoxy-5-(2-m-tolyl-ethoxy)-pyridine-3-carbonyl]-amino}-indane-2-carboxylic acid], the IC50 is less than 100 nM.

Consider `COc1ccc(C(=O)NC2(C(=O)O)Cc3ccccc3C2)cc1NC(=O)Cc1cccc(Cl)c1` [Example 119], for which the IC50 was 1000 to 30000 nM.

With `COc1cc([N+](=O)[O-])c(C(=O)NC2(C(=O)O)Cc3ccccc3C2)cc1OCCc1cccc(Cl)c1` [Example 103, 2-{5-[2-(3-Chloro-phenyl)-ethoxy]-4-methoxy-2-nitro-benzoylamino}-indane-2-carboxylic acid], the IC50 lay within 1000 to 30000 nM.

With `COc1ccc(C(=O)NC2(C(=O)O)Cc3cc(C)c(C)cc3C2)cc1OCCc1cccc(C)c1` [Example 158, 2-[4-Methoxy-3-(2-m-tolyl-ethoxy)-benzoylamino]-5,6-dimethyl-indane-2-carboxylic acid], the IC50 fell in the range of 100 to 1000 nM.

As to `Cc1cccc(CCOc2cc(C(=O)NC3(C(=O)O)Cc4ccccc4C3)ccc2OCC2CCCCO2)c1` (stereo not drawn) [Example 264], the IC50 was less than 100 nM.

In the case of `Cc1cccc(CCOc2cc(C(=O)NC3(C(=O)O)Cc4ccccc4C3)ccc2OCC2CCC2)c1` [Example 262], the IC50 was less than 100 nM.

As for `COc1ccc(C(=O)NC2(C(=O)O)Cc3ccccc3C2)cc1-c1cccc(CNC(C)=O)c1` [Example 339], the IC50 lay in the range of 100 to 1000 nM.

For `COc1ccc(C(=O)NC2(C(=O)O)Cc3ccccc3C2)cc1OCCc1cccc(SC(F)(F)F)c1` [Example 19], the IC50 was less than 100 nM.

On to `COc1ccc(C(=O)NC2(C(=O)O)Cc3ccccc3C2)cc1OCCc1cc(Cl)ccc1Cl` [Example 352], for which the IC50 is less than 100 nM.

`O=C(NC1(C(=O)O)Cc2ccccc2C1)c1ccc(C(F)(F)F)c(OCCc2cc(Cl)ccc2Cl)c1` [Example 362, 2-{3-[2-(2,5-Dichloro-phenyl)-ethoxy]-4-trifluoromethyl-benzoylamino}-indane-2-carboxylic acid]: the IC50 was less than 100 nM.

Consider `COc1cc(-c2cc(C(=O)NC3(C(=O)O)Cc4ccccc4C3)ccc2OC)cc(C(F)(F)F)c1` [Example 349], for which the IC50 was less than 100 nM.

Consider `CCSc1cccc(-c2cc(C(=O)NC3(C(=O)O)Cc4ccccc4C3)cnc2OC)c1` [Example 233], for which the IC50 is less than 100 nM.

For `Cc1cccc(CCOc2cc(C(=O)NC3(C(=O)O)Cc4ccccc4C3)ccc2C(F)(F)F)c1` [Example 185, 2-[3-(2-m-Tolyl-ethoxy)-4-trifluoromethyl-benzoylamino]-indane-2-carboxylic acid], the IC50 was less than 100 nM.

With `COc1ccc(C(=O)NC2(C(=O)O)Cc3ccccc3C2)cc1OCC1(c2cccc(C)c2)CC1` [Example 24], the IC50 was less than 100 nM.
